The values below come from patent EP4692090A1 (Shanghai Fosun Pharmaceutical (Group) Co., Ltd., priority 2023, dated 2024).

Like-named read-outs stand apart in the source and are kept apart here.

In one assay the test system is LoVo cells. Nature of the assay: LoVo cell proliferation assay (CellTiter-Glo). Type of assay: cell-based. Conditions: Homo sapiens, LoVo, 120 h, maximum concentration 10 µM, 9 concentrations. In outline: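 LoVo cells, 2,000 per well, were treated after overnight attachment with 9-point 3-fold dilutions from 10 µM for 5 days at 37 °C. Viability was read by CellTiter-Glo luminescence. Inhibition % was taken relative to DMSO control, and IC50 came from the concentration–inhibition curve.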
(Cellular ATP, detected with luciferase, serves as a proxy for viable cell number.)

The target in a further assay is T1, ATR kinase (Homo sapiens, UniProt Q13535).
T1 construct: purchased Eurofins 14-953
T1 sequence (Q13535 whole entry): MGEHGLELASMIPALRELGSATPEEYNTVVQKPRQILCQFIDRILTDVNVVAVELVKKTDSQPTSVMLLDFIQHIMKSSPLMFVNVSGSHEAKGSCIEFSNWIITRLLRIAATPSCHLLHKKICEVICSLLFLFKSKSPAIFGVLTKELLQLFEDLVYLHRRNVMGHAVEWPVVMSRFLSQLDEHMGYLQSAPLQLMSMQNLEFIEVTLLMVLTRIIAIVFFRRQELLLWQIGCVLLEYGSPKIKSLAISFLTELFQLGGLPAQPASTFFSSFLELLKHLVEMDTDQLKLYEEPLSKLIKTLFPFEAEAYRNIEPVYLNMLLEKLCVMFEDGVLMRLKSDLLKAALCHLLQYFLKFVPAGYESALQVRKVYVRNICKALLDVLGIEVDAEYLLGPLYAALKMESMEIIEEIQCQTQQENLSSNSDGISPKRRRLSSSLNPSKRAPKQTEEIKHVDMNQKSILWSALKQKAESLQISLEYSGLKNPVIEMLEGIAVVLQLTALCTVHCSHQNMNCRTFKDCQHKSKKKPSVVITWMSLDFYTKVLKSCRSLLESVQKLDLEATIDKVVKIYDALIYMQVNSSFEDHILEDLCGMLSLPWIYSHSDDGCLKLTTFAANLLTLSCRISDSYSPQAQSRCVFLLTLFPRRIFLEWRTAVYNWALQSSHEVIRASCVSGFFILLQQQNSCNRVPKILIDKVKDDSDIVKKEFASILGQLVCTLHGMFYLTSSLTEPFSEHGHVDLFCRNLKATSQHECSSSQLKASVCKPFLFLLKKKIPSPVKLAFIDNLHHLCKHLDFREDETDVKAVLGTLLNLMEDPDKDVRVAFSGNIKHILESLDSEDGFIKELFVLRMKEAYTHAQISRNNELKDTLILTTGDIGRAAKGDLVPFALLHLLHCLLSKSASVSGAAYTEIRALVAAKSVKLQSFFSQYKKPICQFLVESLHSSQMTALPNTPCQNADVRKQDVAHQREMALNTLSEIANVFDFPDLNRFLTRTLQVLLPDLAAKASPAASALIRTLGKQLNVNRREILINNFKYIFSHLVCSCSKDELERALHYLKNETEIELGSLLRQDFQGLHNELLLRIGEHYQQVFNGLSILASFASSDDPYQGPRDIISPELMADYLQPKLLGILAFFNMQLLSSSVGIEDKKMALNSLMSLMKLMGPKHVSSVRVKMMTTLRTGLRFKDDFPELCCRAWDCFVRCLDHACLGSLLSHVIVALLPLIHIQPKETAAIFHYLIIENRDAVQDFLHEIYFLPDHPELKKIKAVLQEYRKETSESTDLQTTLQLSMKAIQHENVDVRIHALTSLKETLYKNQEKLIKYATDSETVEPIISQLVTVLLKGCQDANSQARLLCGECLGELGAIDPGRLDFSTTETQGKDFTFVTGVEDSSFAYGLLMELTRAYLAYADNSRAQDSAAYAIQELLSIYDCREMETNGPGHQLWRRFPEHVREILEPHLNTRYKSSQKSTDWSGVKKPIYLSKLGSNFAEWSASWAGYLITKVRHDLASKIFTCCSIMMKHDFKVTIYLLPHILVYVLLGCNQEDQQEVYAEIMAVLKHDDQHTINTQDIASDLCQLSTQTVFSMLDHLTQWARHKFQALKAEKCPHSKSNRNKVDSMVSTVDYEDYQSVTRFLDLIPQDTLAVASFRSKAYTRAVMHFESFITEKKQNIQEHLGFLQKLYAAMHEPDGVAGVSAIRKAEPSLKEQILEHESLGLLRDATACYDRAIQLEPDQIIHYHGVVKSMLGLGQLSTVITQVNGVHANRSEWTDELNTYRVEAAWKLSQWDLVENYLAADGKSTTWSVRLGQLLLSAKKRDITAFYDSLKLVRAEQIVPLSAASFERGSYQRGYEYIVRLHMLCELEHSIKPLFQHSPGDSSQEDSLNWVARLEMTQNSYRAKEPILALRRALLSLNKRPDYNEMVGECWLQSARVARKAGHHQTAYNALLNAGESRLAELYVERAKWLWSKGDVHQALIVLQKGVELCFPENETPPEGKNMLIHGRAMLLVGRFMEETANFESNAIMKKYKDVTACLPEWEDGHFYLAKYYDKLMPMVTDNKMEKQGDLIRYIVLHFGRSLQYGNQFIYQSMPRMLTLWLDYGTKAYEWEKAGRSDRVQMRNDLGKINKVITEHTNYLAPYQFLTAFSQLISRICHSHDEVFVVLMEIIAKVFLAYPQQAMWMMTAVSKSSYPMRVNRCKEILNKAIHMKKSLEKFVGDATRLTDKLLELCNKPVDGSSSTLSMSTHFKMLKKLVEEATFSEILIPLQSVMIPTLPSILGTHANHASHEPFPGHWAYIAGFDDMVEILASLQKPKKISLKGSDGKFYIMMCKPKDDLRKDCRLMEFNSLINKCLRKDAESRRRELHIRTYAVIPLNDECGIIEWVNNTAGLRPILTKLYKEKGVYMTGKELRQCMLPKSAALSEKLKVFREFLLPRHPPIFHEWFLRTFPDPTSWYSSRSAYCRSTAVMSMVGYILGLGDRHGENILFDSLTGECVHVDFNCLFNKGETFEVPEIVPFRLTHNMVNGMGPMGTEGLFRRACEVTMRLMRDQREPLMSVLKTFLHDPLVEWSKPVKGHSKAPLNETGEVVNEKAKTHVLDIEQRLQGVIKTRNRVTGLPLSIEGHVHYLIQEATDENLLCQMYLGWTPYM
T1 sequence (Q8WXE1 whole entry partner): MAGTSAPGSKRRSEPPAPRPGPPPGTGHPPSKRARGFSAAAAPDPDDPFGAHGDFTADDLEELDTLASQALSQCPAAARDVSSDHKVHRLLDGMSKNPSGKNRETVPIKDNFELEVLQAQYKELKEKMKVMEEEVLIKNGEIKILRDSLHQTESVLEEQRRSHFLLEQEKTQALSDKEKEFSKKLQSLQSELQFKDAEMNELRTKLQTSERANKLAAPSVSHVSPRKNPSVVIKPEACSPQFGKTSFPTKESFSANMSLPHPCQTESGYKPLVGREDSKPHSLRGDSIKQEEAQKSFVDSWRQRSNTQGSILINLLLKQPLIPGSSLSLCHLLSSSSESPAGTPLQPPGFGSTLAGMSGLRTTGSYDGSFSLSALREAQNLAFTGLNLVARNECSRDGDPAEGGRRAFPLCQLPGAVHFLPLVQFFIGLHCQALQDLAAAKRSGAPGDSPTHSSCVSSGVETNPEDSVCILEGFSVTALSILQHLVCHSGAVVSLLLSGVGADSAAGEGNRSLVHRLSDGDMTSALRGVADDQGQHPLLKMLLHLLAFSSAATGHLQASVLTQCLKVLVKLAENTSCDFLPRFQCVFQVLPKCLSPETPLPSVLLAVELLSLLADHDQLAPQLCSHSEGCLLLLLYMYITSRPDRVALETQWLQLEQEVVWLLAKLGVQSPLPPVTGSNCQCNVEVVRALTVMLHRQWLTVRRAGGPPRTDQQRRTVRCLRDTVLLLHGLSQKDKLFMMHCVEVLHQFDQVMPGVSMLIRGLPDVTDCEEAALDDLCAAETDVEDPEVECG
Nature of the assay: Inhibitory effect on ATR kinase activity (Caliper mobility shift, FAM-labeled RAD17 peptide substrate). Type of assay: biochemical. In outline: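 Caliper mobility-shift assay with 1 nM ATR, FAM-labeled RAD17 peptide […] and 5 mM ATP in HEPES pH 7.5 with 10 mM MnCl2, run 3 h at 28 °C and stopped with EDTA. Compounds were tested in 10-point 3-fold dilutions from 1 µM. IC50 was fitted from % inhibition of substrate conversion versus blank control.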

Setting [1] is: LoVo cells, 2,000 cells per well, 5 days incubation, CellTiter-Glo, read-out: LoVo IC50.
[2] abbreviates: 1 nM ATR kinase (Eurofins), 28°C for 3 hours, maximum concentration 1 µM, 10 concentrations, read-out: ATR kinase IC50.
Setting [3] is: read-out: LoVo IC50 (nM), LoVo cells, 2,000 cells per well, 5 days incubation, CellTiter-Glo.
Setting [4] is: read-out: ATR kinase IC50, 1 nM ATR kinase (Eurofins), 28°C for 3 hours, maximum concentration 1 µM, 10 concentrations.

Take `C[C@@H]1COCCN1c1cc2c3c(nn(-c4cc[nH]n4)c3n1)CCC(=O)N2C1(C)CC1` [Compound 75, (R)-6-(1-methylcyclopropyl)-4-(3-methylmorpholino)-2-(1H-pyrazol-3-yl)-2,6,8,9-tetrahydro-7H-1,2,3,6-tetraazabenzo[cd]azulene-7-one]: the IC50 was < 100 nM in the assay with LoVo cells (setting [1]) and < 10 nM on ATR kinase (setting [2]).

On to `C[C@@H]1COCCN1c1cc2c3c(nn(-c4cc[nH]n4)c3n1)CCC(=O)N2CC1(C)CC1` [Compound 77, (R)-6-((1-methylcyclopropyl)methyl)-4-(3-methylmorpholino)-2-(1H-pyrazol-3-yl)-2,6,8,9-tetrahydro-7H-1,2,3,6-tetraazabenzo[cd]azulene-7-one], for which the IC50 in the assay with LoVo cells (setting [1]) is < 100 nM; on ATR kinase (setting [2]), < 10 nM.

On to `CC(C)N1C(=O)CCc2nn(-c3cc[nH]n3)c3nc(N4CCOC[C@H]4C)cc1c23` [Compound 78, (R)-6-isopropyl-4-(3-methylmorpholino)-2-(1H-pyrazol-3-yl)-2,6,8,9-tetrahydro-7H-1,2,3,6-tetraazabenzo[cd]azulene-7-one], for which the IC50 with LoVo cells (setting [3]) was < 100 nM; at ATR kinase (setting [2]), < 10 nM.

`C[C@@H]1COCCN1c1cc2c3c(nn(-c4cc[nH]n4)c3n1)CCC(=O)N2C1CC(F)(F)C1` [Compound 79, (R)-6-(3,3-difluorocyclobutyl)-4-(3-methylmorpholinyl)-2-(1H-pyrazol-3-yl)-2,6,8,9-tetrahydro-7H-1,2,3,6-tetraazabenzo[cd]azulene-7-one]: the values for the IC50 with LoVo cells (setting [3]) and at ATR kinase (setting [4]) were 100 to 1000 nM and < 10 nM, respectively.

Consider `CC(C)N1C(=O)CCn2nc(-c3cc[nH]n3)c3nc(N4CCOC[C@H]4C)cc1c32` [Compound 81, (R)-6-isopropyl-4-(3-methylmorpholinyl)-2-(1H-pyrazol-3-yl)-8,9-dihydro-1,3,6,9a-tetraazabenzo[cd]azulene-7(6H)-one], for which the IC50 was < 100 nM with LoVo cells (setting [3]) and < 10 nM on ATR kinase (setting [4]).

Take `C[C@@H]1COCCN1c1cc2c3c(n1)c(-c1cc[nH]n1)nn3CCC(=O)N2C1CC1` [Compound 82, (R)-6-cyclopropyl-4-(3-methylmorpholino)-2-(1H-pyrazol-3-yl)-8,9-dihydro-1,3,6,9a-tetraazabenzo[cd]azulene-7(6H)-one]: the IC50 in the assay with LoVo cells (setting [1]) was < 100 nM; at ATR kinase (setting [2]), < 10 nM.

On to `C[C@@H]1COCCN1c1cc2c3c(n1)c(-c1cc[nH]n1)nn3CCC(=O)N2CC1CC1` [Compound 83, (R)-6-(cyclopropylmethyl)-4-(3-methylmorpholino)-2-(1H-pyrazol-3-yl)-8,9-dihydro-1,3,6,9a-tetraazabenzo[cd]azulene-7(6H)-one], for which the figures for the IC50 in the assay with LoVo cells (setting [1]) and at ATR kinase (setting [2]) were < 100 nM and 10 to 100 nM, respectively.

Consider `CC(C)CN1C(=O)CCn2nc(-c3cc[nH]n3)c3nc(N4CCOC[C@H]4C)cc1c32` [Compound 84, (R)-6-isobutyl-4-(3-methylmorpholino)-2-(1H-pyrazol-3-yl)-8,9-dihydro-1,3,6,9a-tetraazabenzo[cd]azulene-7(6H)-one], for which the IC50 with LoVo cells (setting [1]) was < 100 nM; at ATR kinase (setting [2]) it was < 10 nM.

As for `C[C@@H]1COCCN1c1cc2c3c(n1)c(-c1cc[nH]n1)nn3CCC(=O)N2CCC(F)(F)F` [Compound 85, (R)-4-(3-methylmorpholino)-2-(1H-pyrazol-3-yl)-6-(3,3,3-trifluoropropyl)-8,9-dihydro-1,3,6,9a-tetraazabenzo[cd]azulene-7(6H)-one], the IC50 in the assay on LoVo cells (setting [1]) is < 100 nM; at ATR kinase (setting [2]), 10 to 100 nM.

Regarding `C[C@@H]1COCCN1c1cc2c3c(n1)c(-c1cc[nH]n1)nn3CCC(=O)N2C` [Compound 86, (R)-6-methyl-4-(3-methylmorpholino)-2-(1H-pyrazol-3-yl)-8,9-dihydro-1,3,6,9a-tetraazabenzo[cd]azulene-7(6H)-one], the IC50 with LoVo cells (setting [1]) and on ATR kinase (setting [2]) was 100 to 1000 nM each time.

For the compound `C[C@@H]1COCCN1c1cc2c3c(n1)c(-c1cc[nH]n1)nn3CCC(=O)N2CC1(C)CC1` [Compound 87, (R)-6-((1-methylcyclopropyl)methyl)-4-(3-methylmorpholinyl)-2-(1H-pyrazol-3-yl)-8,9-dihydro-1,3,6,9a-tetraazabenzo[cd]azulene-7(6H)-one], the IC50 in the assay on LoVo cells (setting [3]) was < 100 nM; at ATR kinase (setting [4]), 10 to 100 nM.

In the case of `C[C@@H]1COCCN1c1cc2c3c(n1)c(-c1cc[nH]n1)nn3CCC(=O)N2C1(C)CC1` [Compound 88, (R)-6-(1-methylcyclopropyl)-4-(3-methylmorpholinyl)-2-(1H-pyrazol-3-yl)-8,9-dihydro-1,3,6,9a-tetraazabenzo[cd]azulene-7(6H)-one], the figures for the IC50 in the assay with LoVo cells (setting [3]) and at ATR kinase (setting [4]) were < 100 nM and < 10 nM, respectively.

Consider `C[C@@H]1COCCN1c1cc2c3c(n1)c(-c1cc[nH]n1)nn3CCC(=O)N2C1CC1(F)F` (stereo partly drawn) [Compound 89, 6-(2,2-difluorocyclopropyl)-4-((R)-3-methylmorpholinyl)-2-(1H-pyrazol-3-yl)-8,9-dihydro-1,3,6,9a-tetraazabenzo[cd]azulene-7(6H)-one], for which the results for the IC50 in the assay on LoVo cells (setting [3]) and at ATR kinase (setting [4]) were 100 to 1000 nM and < 10 nM, respectively.

Regarding `C[C@@H]1COCCN1c1cc2c3c(n1)c(-c1cc[nH]n1)nn3CCC(=O)N2C1CCOC1` (stereo partly drawn) [Compound 90, 4-((R)-3-methylmorpholino)-2-(1H-pyrazol-3-yl)-6-(tetrahydrofuran-3-yl)-8,9-dihydro-1,3,6,9a-tetraazabenzo[cd]azulene-7(6H)-one], the IC50 was in the range of 100 to 1000 nM in the assay with LoVo cells (setting [1]) and 10 to 100 nM on ATR kinase (setting [2]).

For the compound `C[C@@H]1COCCN1c1cc2c3c(n1)c(-c1cc[nH]n1)nn3CCC(=O)N2C1CCOCC1` [Compound 91, (R)-4-(3-methylmorpholino)-2-(1H-pyrazol-3-yl)-6-(tetrahydro-2H-pyran-4-yl)-8,9-dihydro-1,3,6,9a-tetraazabenzo[cd]azulene-7(6H)-one], the results for the IC50 in the assay on LoVo cells (setting [1]) and on ATR kinase (setting [2]) were 100 to 1000 nM and 10 to 100 nM, respectively.

`C[C@@H]1COCCN1c1cc2c3c(n1)c(-c1cc[nH]n1)nn3CCC(=O)N2C1CC2(CCC2)C1` [Compound 92, (R)-4-(3-methylmorpholino)-2-(1H-pyrazol-3-yl)-6-(spiro [3.3]hept-2-yl)-8,9-dihydro-1,3,6,9a-tetraazabenzo[cd]azulene-7(6H)-one]: the results for the IC50 with LoVo cells (setting [1]) and at ATR kinase (setting [2]) were 100 to 1000 nM and 10 to 100 nM, respectively.

For `C[C@@H]1COCCN1c1cc2c3c(n1)c(-c1cc[nH]n1)nn3CCC(=O)N2` [Compound 93, (R)-4-(3-methylmorpholino)-2-(1H-pyrazol-3-yl)-8,9-dihydro-1,3,6,9a-tetraazabenzo[cd]azulene-7(6H)-one], the IC50 was 100 to 1000 nM in the assay on LoVo cells (setting [1]) and 10 to 100 nM at ATR kinase (setting [2]).

Take `C[C@@H]1COCCN1c1cc2c3c(n1)c(-c1cc[nH]n1)nn3CCC(=O)N2CC(C)(C)O` [Compound 95, (R)-6-(2-hydroxy-2-methylpropyl)-4-(3-methylmorpholinyl)-2-(1H-pyrazol-3-yl)-8,9-dihydro-1,3,6,9a-tetraazabenzo[cd]azulene-7(6H)-one]: the results for the IC50 in the assay on LoVo cells (setting [3]) and at ATR kinase (setting [4]) were 100 to 1000 nM and 10 to 100 nM, respectively.

Regarding `C[C@@H]1COCCN1c1cc2c3c(n1)c(-c1cc[nH]n1)nn3CCC(=O)N2C1CC1C(F)(F)F` (stereo partly drawn) [Compound 96, 4-((R)-3-methylmorpholinyl)-2-(1H-pyrazol-3-yl)-6-(2-(trifluoromethyl)cyclopropyl)-8,9-dihydro-1,3,6,9a-tetraazabenzo[cd]azulene-7(6H)-one], the IC50 in the assay with LoVo cells (setting [3]) lay in the range of 100 to 1000 nM; at ATR kinase (setting [4]) it was 10 to 100 nM.
